Reference: US8426429B2, “2-amino-quinazoline derivatives useful as inhibitors of β-secretase (BACE)” (Jansssen Pharmaceutica N.V., priority 2004, dated 2013)

Target: T1, β-secretase (BACE) (Homo sapiens, UniProt P56817)
T1 construct: purchased Panvera
Assay: BACE FS1 % Inhibition Assay
Format: biochemical
Experimental: The following reagents were used in this assay: sodium acetate, PEG8000 (Sigma), DMSO, HEPES, FS1 substrate [[…]] […] The FS1-substrate stock solution was prepared in DMSO as a 10 mg/mL solution. The FS1-substrate working solution was prepared by diluting the 10 mg/mL stock solution with substrate assay buffer to a final concentration of 300 μg/mL. The β-secretase (BACE) working solution was prepared by diluting a 0.83 mg/mL BACE stock solution with enzyme assay buffer to a final concentration of 4 μg/mL. Test compounds were dissolved in DMSO to 10 mM. […] The screening procedure for this assay was as follows: 15 μL of BACE working solution was pipetted into each well of a 96-well plate. To each well was then pipetted 2 μL of test compound at the selected concentration. Test compound and BACE were then mixed with a pipettor and incubated for 20 min at room temperature. To each well was then added 10 μL of the FS1 substrate working solution. The plates were then incubated for 1 hour at room temperature. […] The procedure for the blank was as follows. 15 μL of assay buffer was pipetted into each well to be used as a blank control. To each well was then added 2 μL of vehicle and 10 μL of FS1-substrate working solution. The plates were then incubated for 1 hour at room temperature. […] The procedure for the positive control was as follows: 15 μL of BACE working solution was pipetted into each well to be used as a positive control. To each well was then pipetted 2 μL of vehicle. Vehicle and BACE were then mixed with a pipettor and incubated for 20 min at room temperature. To each well was then added 10 μL of the FS1 substrate working solution. The plates were then incubated for 1 hour at room temperature. […] For test compounds, % inhibition was determined at each concentration as follows: [formula]

T1 sequence (P56817 46-501): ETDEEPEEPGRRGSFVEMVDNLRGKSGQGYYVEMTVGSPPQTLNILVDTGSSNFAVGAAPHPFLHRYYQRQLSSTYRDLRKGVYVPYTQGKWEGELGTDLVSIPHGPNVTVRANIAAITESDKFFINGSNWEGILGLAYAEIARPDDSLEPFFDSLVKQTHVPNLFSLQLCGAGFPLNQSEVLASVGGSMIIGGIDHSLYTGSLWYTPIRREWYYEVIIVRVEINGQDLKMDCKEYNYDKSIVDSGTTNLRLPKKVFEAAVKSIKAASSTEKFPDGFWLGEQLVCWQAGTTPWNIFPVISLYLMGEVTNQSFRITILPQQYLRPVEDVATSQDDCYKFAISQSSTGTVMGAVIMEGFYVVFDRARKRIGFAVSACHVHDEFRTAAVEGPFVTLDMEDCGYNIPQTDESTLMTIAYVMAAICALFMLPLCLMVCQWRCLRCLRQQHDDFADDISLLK

SMILES	% Inhibition (FS) (0.3 μM test compound)	% Inhibition (FS) (1 μM test compound)	% Inhibition (FS) (3 μM test compound)	other results
CN(C(=O)CCC(C)(C)N1Cc2cc(Oc3ccccc3)ccc2N=C1N)C1CCCCC1 [Compound 738]	–	–	–	% Inhibition (FS) (0.3 μM compound, FS1 substrate): 14%; % Inhibition (FS) (1 μM compound, FS1 substrate): 28%; % Inhibition (FS) (3 μM compound, FS1 substrate): 61%
CCCC(=O)NCCN1Cc2cc(-c3cncnc3)ccc2N=C1N [Compound 569]	<30%	<30%	<30%	–
CC(C)COc1ccc2c(c1)CN(Cc1cccc(C(=O)N(C)C3CCCCC3)c1)C(N)=N2 [Compound 518]	<30%	<30%	<30%	–
CC(C)(C)OC(=O)NCC(c1ccccc1)N1Cc2cc(Oc3ccccc3)ccc2N=C1N (stereo not shown) [Compound 258]	<30%	46%	72%	–
CCCC(CCC)C(=O)N1CCC(CN2Cc3cc(Oc4ccccc4)ccc3N=C2N)CC1 [Compound 526]	<30%	36%	98%	–
CN(C(=O)c1cccc(CN2Cc3cc(-c4ccc(C(N)=O)cc4)ccc3N=C2N)c1)C1CCCCC1 [Compound 162]	<30%	<30%	<30%	–
CN(C(=O)c1cccc(CN2Cc3cc(-c4ccc(C5CCCCC5)cc4)ccc3N=C2N)c1)C1CCCCC1 [Compound 267]	<30%	39%	38%	–
CN(C(=O)c1cccc(CN2Cc3cc(Oc4cccc(Oc5ccccc5)c4)ccc3N=C2N)c1)C1CCCCC1 [Compound 236]	<30%	37%	49%	–
NC1=Nc2ccc(Oc3ccccc3)cc2CN1Cc1cccc(NC(=O)C2CCCCC2)c1 [Compound 286]	<30%	<30%	36%	–
NC1=Nc2ccc(Oc3ccccc3)cc2CN1CCNC(=O)c1ccc(-c2ccccc2)cc1 [Compound 195]	<30%	<30%	<30%	–
CN(C(=O)c1cccc(CN2Cc3cc(Nc4ccc(N5CCOCC5)cc4)ccc3N=C2N)c1)C1CCCCC1 [Compound 439]	<30%	<30%	<30%	–
CN(Cc1csc(-c2ccccc2)n1)C(=O)CC[C@@H](C1CCCCC1)N1Cc2cc(-c3ccccc3F)ccc2N=C1N [Compound 722]	–	–	–	% Inhibition (FS) (0.3 μM compound, FS1 substrate): 35%; % Inhibition (FS) (1 μM compound, FS1 substrate): 35%; % Inhibition (FS) (3 μM compound, FS1 substrate): 78%
CCCC=Cc1ccc2c(c1)CN(CCNC(=O)C(C)(C)C)C(N)=N2 [Compound 574]	<30%	<30%	<30%	–
CN(C(=O)c1cccc(CN2Cc3cc(Oc4ccccc4-c4nc5ccccc5s4)ccc3N=C2N)c1)C1CCCCC1 [Compound 470]	<30%	<30%	31%	–
NC1=Nc2ccc(Oc3ccccc3)cc2CN1C1CCCCN(C(=O)C2CCCCC2)C1 (stereo not shown) [Compound 551]	<30%	<30%	<30%	–
NC1=Nc2ccc(Oc3ccccc3)cc2CN1CCCNC1CCCCC1 [Compound 403]	<30%	<30%	66%	–
COc1cccc(Nc2ccc3c(c2)CN(Cc2cccc(C(=O)N(C)C4CCCCC4)c2)C(N)=N3)c1 [Compound 433]	<30%	33%	88%	–
CC(C)(C)OC(=O)Nc1cccc(CN2Cc3cc(Oc4ccccc4)ccc3N=C2N)c1 [Compound 224]	<30%	<30%	<30%	–
CN(C(=O)CCC(C1CCCCC1)N1Cc2cc(Oc3ccccc3)ccc2N=C1N)C1CCOCC1 (stereo not shown) [Compound 633]	<30%	30%	70%	–
CN(C(=O)CCC(C1CCOCC1)N1Cc2cc(Oc3ccccc3)ccc2N=C1N)C1CCCCC1 (stereo not shown) [Compound 619]	119%	118%	125%	–
CCOc1cccc(Nc2ccc3c(c2)CN(Cc2cccc(C(=O)N(C)C4CCCCC4)c2)C(N)=N3)c1 [Compound 440]	<30%	35%	72%	–

SMILES	% Inhibition (FS) (0.3 μM test compound)	% Inhibition (FS) (1 μM test compound)	% Inhibition (FS) (3 μM test compound)	other results
CN(C(=O)c1cccc(CN2Cc3cc(Oc4ccccc4-n4cccc4)ccc3N=C2N)c1)C1CCCCC1 [Compound 471]	<30%	<30%	38%	–
COC(=O)C(COCc1ccccc1)N(C)C(=O)CCC(C1CCCCC1)N1Cc2cc(Oc3ccccc3)ccc2N=C1N (stereo not shown) [Compound 780]	–	–	–	% Inhibition (FS) (0.3 μM compound, FS1 substrate): 69%; % Inhibition (FS) (1 μM compound, FS1 substrate): 97%
CCCC(CCC(=O)NC1CCCCC1)N1Cc2cc(Oc3ccccc3)ccc2N=C1N (stereo not shown) [Compound 129]	–	–	113%	% Inhibition (FS) (10 μM test compound): 113%
Cc1ccccc1-c1ccc2c(c1)CN(CCNC(=O)CCC(F)(F)F)C(N)=N2 [Compound 678]	–	–	–	% Inhibition (FS) (0.3 μM compound, FS1 substrate): 51%; % Inhibition (FS) (1 μM compound, FS1 substrate): 88%; % Inhibition (FS) (3 μM compound, FS1 substrate): 99%
CN(C(=O)CC[C@@H](C1CCOCC1)N1Cc2cc(Oc3ccccc3)ccc2N=C1N)[C@H]1CC[C@@H](C(=O)O)CC1 [Compound 745, (S)-Enantiomer of 4-cis-{[4-(2-Amino-6-phenoxy-4H-quinazolin-3-yl)-4-(tetrahydro-pyran-4-yl)-butyryl]-methyl-amino}-cyclohexanecarboxylic acid]	–	–	–	% Inhibition (FS) (0.3 μM compound, FS1 substrate, 0.3 µM): 115%; % Inhibition (FS) (1 μM compound, FS1 substrate, 1 µM): 114%; inhibition at 3 µM (3 μM compound, FS1 substrate, read-out: % Inhibition (FS)): 114%
NC1=Nc2ccc(-c3ccc(Cl)cc3)cc2CN1CCNC(=O)C1CCCCC1 [Compound 626]	<30%	<30%	56%	–
CN(C(=O)c1cccc(CN2Cc3cc([S+]([O-])c4ccccc4)ccc3N=C2N)c1)C1CCCCC1 (stereo not shown) [Compound 549]	<30%	30%	71%	–
NC1=Nc2ccc(Oc3ccccc3)cc2CN1C1c2ccccc2-c2c(C(=O)N(C3CCCCC3)C3CCCCC3)cccc21 (stereo not shown) [Compound 147]	–	–	<30%	% Inhibition (FS) (10 μM test compound): 71%
NC1=Nc2ccc(Oc3ccccc3)cc2CN1C(CCCC(=O)N1CCCCC1)CCC(=O)N1CCCCC1 (stereo not shown) [Compound 452]	<30%	42%	78%	–
CC(C)(C)OC(=O)N1CCCCC(N2Cc3cc(Oc4ccccc4)ccc3N=C2N)C1 (stereo not shown) [Compound 510]	<30%	<30%	37%	–
CN(C(=O)c1cccc(CN2Cc3cc(-c4cn[nH]c4)ccc3N=C2N)c1)C1CCCCC1 [Compound 161]	<30%	<30%	<30%	–
Cc1ccccc1-c1ccc2c(c1)CN(CCNC(=O)C1CCC(C(F)(F)F)CC1)C(N)=N2 (stereo not shown) [Compound 694]	–	–	–	% Inhibition (FS) (0.3 μM compound, FS1 substrate): <30%; % Inhibition (FS) (1 μM compound, FS1 substrate): <30%; % Inhibition (FS) (3 μM compound, FS1 substrate): 84%
CCCC=Cc1ccc2c(c1)CN(CCNC(=O)CC1CCCC1)C(N)=N2 [Compound 580]	<30%	<30%	<30%	–
CN1CCC(N(C)C(=O)c2cccc(CN3Cc4cc(Oc5ccccc5)ccc4N=C3N)c2)CC1 [Compound 223]	<30%	<30%	<30%	–
CCc1ccccc1Sc1ccc2c(c1)CN(Cc1cccc(C(=O)N(C)C3CCCCC3)c1)C(N)=N2 [Compound 406]	<30%	<30%	50%	–
NC1=Nc2ccc(C3=CCCC3)cc2CN1CCNC(=O)C1CCC(C(F)(F)F)CC1 (stereo not shown) [Compound 707]	–	–	–	% Inhibition (FS) (0.3 μM compound, FS1 substrate): <30%; % Inhibition (FS) (1 μM compound, FS1 substrate): <30%; % Inhibition (FS) (3 μM compound, FS1 substrate): <30%
CC1CCC(C(=O)NCCN2Cc3cc(Oc4ccccc4)ccc3N=C2N)CC1 (stereo not shown) [Compound 191]	<30%	46%	88%	–
CN(C(=O)c1cccc(CN2Cc3cc(Oc4ccccc4C(=O)N4CCCC4)ccc3N=C2N)c1)C1CCCCC1 [Compound 483]	<30%	<30%	<30%	–
COC(=O)[C@H](COCc1ccccc1)N(C)C(=O)CC[C@@H](C1CCOCC1)N1Cc2cc(Oc3ccccc3)ccc2N=C1N [Compound 786]	–	–	–	% Inhibition (FS) (0.3 μM compound, FS1 substrate): 97%; % Inhibition (FS) (1 μM compound, FS1 substrate): 105%; % Inhibition (FS) (3 μM compound, FS1 substrate): 114%
CC(CC(=O)NCCN1Cc2cc(-c3ccccc3F)ccc2N=C1N)C(F)(F)F (stereo not shown) [Compound 681]	–	–	–	% Inhibition (FS) (0.3 μM compound, FS1 substrate): 67%; % Inhibition (FS) (1 μM compound, FS1 substrate): 100%
NC1=Nc2ccc(Oc3ccccc3)cc2CN1C1CCN(C(=O)C2CCCC2)C1 (stereo not shown) [Compound 120]	–	–	<30%	% Inhibition (FS) (10 μM test compound): 34%
